# ChEMBL document CHEMBL3808371, “Design, synthesis and biological evaluation of diaziridinyl quinone isoxazole hybrids” (Eur J Med Chem, 2016)
# The source made the active and inactive calls. The calls are words filed in the database; no cut-off is given here.
# Assays:
# Bacillus subtilis [1] = assay: Antimicrobial activity against Bacillus subtilis MTCC 121 after 24 hrs by well diffusion method; type: functional
# Staphylococcus aureus [2] = assay: Antimicrobial activity against Staphylococcus aureus MTCC 96 after 24 hrs by well diffusion method; type: functional
# Raoultella planticola [3] = assay: Antibiofilm activity against Klebsiella planticola MTCC 530 after 24 hrs by crystal violet staining based assay; type: functional, organism-based; details: MTCC 530, 24 h
# Bacillus subtilis [4] = assay: Bactericidal activity against Bacillus subtilis MTCC 121 after 24 hrs by serial dilution method; type: functional; details: MTCC 121, 24 h
# Escherichia coli = assay: Antimicrobial activity against Escherichia coli MTCC 739 after 24 hrs by well diffusion method; type: functional
# Pseudomonas aeruginosa = assay: Antimicrobial activity against Pseudomonas aeruginosa MTCC 2453 after 24 hrs by well diffusion method; type: functional
# Raoultella planticola [5] = assay: Antimicrobial activity against Klebsiella planticola MTCC 530 after 24 hrs by well diffusion method; type: functional
# Raoultella planticola [6] = assay: Bactericidal activity against Klebsiella planticola MTCC 530 after 24 hrs by serial dilution method; type: functional; details: MTCC 530, 24 h
# Bacillus subtilis [7] = assay: Antibiofilm activity against Bacillus subtilis MTCC 121 after 24 hrs by crystal violet staining based assay; type: functional, organism-based; details: MTCC 121, 24 h
# Staphylococcus aureus [8] = assay: Antimicrobial activity against Staphylococcus aureus MLS16 MTCC 2940 after 24 hrs by well diffusion method; type: functional
# Micrococcus luteus [9] = assay: Bactericidal activity against Micrococcus luteus MTCC 2470 after 24 hrs by serial dilution method; type: functional; details: MTCC 2470, 24 h
# Staphylococcus aureus [10] = assay: Antibiofilm activity against Staphylococcus aureus MLS16 MTCC 2940 after 24 hrs by crystal violet staining based assay; type: functional, organism-based; details: MLS16 MTCC 2940, 24 h
# Micrococcus luteus [11] = assay: Antimicrobial activity against Micrococcus luteus MTCC 2470 after 24 hrs by well diffusion method; type: functional
# A549 [12] = assay: Cytotoxicity against human A549 cells; type: functional, cell-based
# [13] = Cytotoxicity against human PC3 cells; type: functional, cell-based; details: PC-3
# Staphylococcus aureus [14] = assay: Bactericidal activity against Staphylococcus aureus MLS16 MTCC 2940 after 24 hrs by serial dilution method; type: functional; details: MLS16 MTCC 2940, 24 h
# Staphylococcus aureus [15] = assay: Bactericidal activity against Staphylococcus aureus MTCC 96 after 24 hrs by serial dilution method; type: functional; details: MTCC 96, 24 h
# Staphylococcus aureus [16] = assay: Antibiofilm activity against Staphylococcus aureus MTCC 96 after 24 hrs by crystal violet staining based assay; type: functional, organism-based; details: MTCC 96, 24 h
# Micrococcus luteus [17] = assay: Antibiofilm activity against Micrococcus luteus MTCC 2470 after 24 hrs by crystal violet staining based assay; type: functional, organism-based; details: MTCC 2470, 24 h
# Candida albicans [18] = assay: Antimicrobial activity against Candida albicans MTCC 3017 after 24 hrs by well diffusion method; type: functional; details: MTCC 3017, 24 h
# Candida albicans [19] = assay: Antimicrobial activity against Candida albicans MTCC 854 after 24 hrs by well diffusion method; type: functional; details: MTCC 854, 24 h
# Candida albicans [20] = assay: Antimicrobial activity against Candida albicans MTCC 3018 after 24 hrs by well diffusion method; type: functional; details: MTCC 3018, 24 h
# Pichia sporocuriosa [21] = assay: Antimicrobial activity against Issatchenkia hanoiensis MTCC 4755 after 24 hrs by well diffusion method; type: functional; details: MTCC 4755, 24 h
# Candida albicans [22] = assay: Antimicrobial activity against Candida albicans MTCC 1637 after 24 hrs by well diffusion method; type: functional; details: MTCC 1637, 24 h
# Candida albicans [23] = assay: Fungicidal activity against Candida albicans MTCC 7315 after 24 hrs by serial dilution method; type: functional; details: MTCC 7315, 24 h
# Candida albicans [24] = assay: Fungicidal activity against Candida albicans MTCC 183 after 24 hrs by serial dilution method; type: functional; details: MTCC 183, 24 h
# Pichia kudriavzevii [25] = assay: Fungicidal activity against Candida krusei MTCC 3020 after 24 hrs by serial dilution method; type: functional; details: MTCC 3020, 24 h
# Candida albicans [26] = assay: Antimicrobial activity against Candida albicans MTCC 7315 after 24 hrs by well diffusion method; type: functional; details: MTCC 7315, 24 h
# Candida albicans [27] = assay: Fungicidal activity against Candida albicans MTCC 4748 after 24 hrs by serial dilution method; type: functional; details: MTCC 4748, 24 h
# Candida albicans [28] = assay: Fungicidal activity against Candida albicans MTCC 3018 after 24 hrs by serial dilution method; type: functional; details: MTCC 3018, 24 h
# Candida albicans [29] = assay: Fungicidal activity against Candida albicans MTCC 854 after 24 hrs by serial dilution method; type: functional; details: MTCC 854, 24 h
# Nakaseomyces glabratus [30] = assay: Antimicrobial activity against Candida glabrata MTCC 3019 after 24 hrs by well diffusion method; type: functional; details: MTCC 3019, 24 h
# Candida albicans [31] = assay: Fungicidal activity against Candida albicans MTCC 227 after 24 hrs by serial dilution method; type: functional; details: MTCC 227, 24 h
# Candida albicans [32] = assay: Antimicrobial activity against Candida albicans MTCC 183 after 24 hrs by well diffusion method; type: functional; details: MTCC 183, 24 h
# Candida albicans [33] = assay: Fungicidal activity against Candida albicans MTCC 1637 after 24 hrs by serial dilution method; type: functional; details: MTCC 1637, 24 h
# Nakaseomyces glabratus [34] = assay: Fungicidal activity against Candida glabrata MTCC 3019 after 24 hrs by serial dilution method; type: functional; details: MTCC 3019, 24 h
# Candida parapsilosis [35] = assay: Fungicidal activity against Candida parapsilosis MTCC 1744 after 24 hrs by serial dilution method; type: functional; details: Lodderomyces parapsilosis, MTCC 1744, 24 h
# Pichia kudriavzevii [36] = assay: Antimicrobial activity against Candida krusei MTCC 3020 after 24 hrs by well diffusion method; type: functional; details: MTCC 3020, 24 h
# Candida albicans [37] = assay: Antimicrobial activity against Candida albicans MTCC 3958 after 24 hrs by well diffusion method; type: functional; details: MTCC 3958, 24 h
# Candida albicans [38] = assay: Antimicrobial activity against Candida albicans MTCC 227 after 24 hrs by well diffusion method; type: functional; details: MTCC 227, 24 h
# [Candida] aaseri [39] = Antimicrobial activity against Candida aaseri MTCC 1962 after 24 hrs by well diffusion method; type: functional; details: Yamadazyma aaseri, MTCC 1962, 24 h
# Candida albicans [40] = assay: Fungicidal activity against Candida albicans MTCC 3958 after 24 hrs by serial dilution method; type: functional; details: MTCC 3958, 24 h
# Candida albicans [41] = assay: Antimicrobial activity against Candida albicans MTCC 4748 after 24 hrs by well diffusion method; type: functional; details: MTCC 4748, 24 h
# [Candida] aaseri [42] = Fungicidal activity against Candida aaseri MTCC 1962 after 24 hrs by serial dilution method; type: functional; details: Yamadazyma aaseri, MTCC 1962, 24 h
# Candida parapsilosis [43] = assay: Antimicrobial activity against Candida parapsilosis MTCC 1744 after 24 hrs by well diffusion method; type: functional; details: Lodderomyces parapsilosis, MTCC 1744, 24 h
# Pichia sporocuriosa [44] = assay: Fungicidal activity against Issatchenkia hanoiensis MTCC 4755 after 24 hrs by serial dilution method; type: functional; details: MTCC 4755, 24 h
# Candida albicans [45] = assay: Fungicidal activity against Candida albicans MTCC 3017 after 24 hrs by serial dilution method; type: functional; details: MTCC 3017, 24 h
# A549 [46] = assay: Cytotoxicity against human A549 cells after 72 hrs by XTT assay; type: functional, cell-based; details: A549, 72 h
# [47] = Cytotoxicity against human PC3 cells after 72 hrs by XTT assay; type: functional, cell-based; details: PC-3, 72 h
compound,measurement,setting,value
CO[C@@]12[C@H](COC(N)=O)C3=C(C(=O)C(C)=C(N)C3=O)N1C[C@@H]1N[C@@H]12 [MITOMYCIN],MIC,"Bacillus subtilis [1]; MTCC 121, 24 h",0.45 µg/mL
same,MIC,"Staphylococcus aureus [2]; MTCC 96, 24 h",1.9 µg/mL
same,IC50,Raoultella planticola [3],1100 nM
same,MBC,Bacillus subtilis [4],0.9 µg/mL
same,MIC,"Escherichia coli; MTCC 739, 24 h",3.9 µg/mL
same,MIC,"Pseudomonas aeruginosa; MTCC 2453, 24 h",1.9 µg/mL
same,MIC,"Raoultella planticola [5]; MTCC 530, 24 h",1.9 µg/mL
same,MBC,Raoultella planticola [6],3.9 µg/mL
same,IC50,Bacillus subtilis [7],300 nM
same,MIC,"Staphylococcus aureus [8]; MLS16 MTCC 2940, 24 h",1.9 µg/mL
same,MBC,Micrococcus luteus [9],1.9 µg/mL
same,IC50,Staphylococcus aureus [10],900 nM
same,MIC,"Micrococcus luteus [11]; MTCC 2470, 24 h",0.9 µg/mL
same,IC50,A549 [12],500 nM
same,IC50,[13],500 nM
same,MBC,Staphylococcus aureus [14],1.9 µg/mL
same,MBC,Staphylococcus aureus [15],3.9 µg/mL
same,IC50,Staphylococcus aureus [16],1100 nM
same,IC50,Micrococcus luteus [17],900 nM
same,MIC,Candida albicans [18],> 500 µg/mL
O=C1C=C(N2CC2)C(=O)C(c2cc(-c3ccc(C(=O)N4CCOCC4)s3)on2)=C1N1CC1,MIC,Candida albicans [19],7.8 µg/mL
same,MIC,"Bacillus subtilis [1]; MTCC 121, 24 h",3.9 µg/mL
same,MIC,"Staphylococcus aureus [2]; MTCC 96, 24 h",3.9 µg/mL
same,IC50,Raoultella planticola [3],5100 nM
same,MIC,Candida albicans [20],62.5 µg/mL
same,MBC,Bacillus subtilis [4],3.9 µg/mL
same,MIC,Pichia sporocuriosa [21],15.6 µg/mL
same,MIC,Candida albicans [22],31.2 µg/mL
same,MIC,"Escherichia coli; MTCC 739, 24 h",> 125 µg/mL
same,MFC,Candida albicans [23],125 µg/mL
same,MFC,Candida albicans [24],31.2 µg/mL
same,MFC,Pichia kudriavzevii [25],15.6 µg/mL
same,MIC,Candida albicans [26],62.5 µg/mL
same,MFC,Candida albicans [27],125 µg/mL
same,MFC,Candida albicans [28],125 µg/mL
same,MFC,Candida albicans [29],15.6 µg/mL
same,MIC,"Pseudomonas aeruginosa; MTCC 2453, 24 h",> 125 µg/mL
same,MIC,Nakaseomyces glabratus [30],31.2 µg/mL
same,MFC,Candida albicans [31],31.2 µg/mL
same,MIC,Candida albicans [32],15.6 µg/mL
same,MFC,Candida albicans [33],62.5 µg/mL
same,MFC,Nakaseomyces glabratus [34],125 µg/mL
same,MIC,"Raoultella planticola [5]; MTCC 530, 24 h",7.8 µg/mL
same,MBC,Raoultella planticola [6],15.6 µg/mL
same,MFC,Candida parapsilosis [35],62.5 µg/mL
same,IC50,Bacillus subtilis [7],2800 nM
same,MIC,Pichia kudriavzevii [36],7.8 µg/mL
same,MIC,"Staphylococcus aureus [8]; MLS16 MTCC 2940, 24 h",3.9 µg/mL
same,MBC,Micrococcus luteus [9],31.2 µg/mL
same,MIC,Candida albicans [37],15.6 µg/mL
same,MIC,Candida albicans [38],7.8 µg/mL
same,IC50,Staphylococcus aureus [10],1900 nM
same,MIC,[Candida] aaseri [39],31.2 µg/mL
same,MIC,"Micrococcus luteus [11]; MTCC 2470, 24 h",15.6 µg/mL
same,MFC,Candida albicans [40],62.5 µg/mL
same,MIC,Candida albicans [41],31.2 µg/mL
same,MFC,[Candida] aaseri [42],125 µg/mL
same,MBC,Staphylococcus aureus [14],3.9 µg/mL
same,MBC,Staphylococcus aureus [15],7.8 µg/mL
same,MIC,Candida parapsilosis [43],15.6 µg/mL
same,IC50,Staphylococcus aureus [16],2500 nM
same,IC50,Micrococcus luteus [17],9800 nM
same,MFC,Pichia sporocuriosa [44],31.2 µg/mL
same,MFC,Candida albicans [45],15.6 µg/mL
same,MIC,Candida albicans [18],7.8 µg/mL
same,IC50,A549 [46],1500 nM
same,IC50,[47],1400 nM
Clc1ccc(COC(Cn2ccnc2)c2ccc(Cl)cc2Cl)c(Cl)c1 (centres undefined) [MICONAZOLE],MIC,Candida albicans [19],7.8 µg/mL
same,MIC,Bacillus subtilis [1],inactive
same,MIC,Staphylococcus aureus [2],inactive
same,MIC,Candida albicans [20],7.8 µg/mL
same,MIC,Pichia sporocuriosa [21],7.8 µg/mL
same,MIC,Candida albicans [22],7.8 µg/mL
same,MIC,Escherichia coli,inactive
same,MFC,Candida albicans [23],7.8 µg/mL
same,MFC,Candida albicans [24],15.6 µg/mL
same,MFC,Pichia kudriavzevii [25],7.8 µg/mL
same,MIC,Candida albicans [26],7.8 µg/mL
same,MFC,Candida albicans [27],15.6 µg/mL
same,MFC,Candida albicans [28],15.6 µg/mL
same,MFC,Candida albicans [29],7.8 µg/mL
same,MIC,Pseudomonas aeruginosa,inactive
same,MIC,Nakaseomyces glabratus [30],7.8 µg/mL
same,MFC,Candida albicans [31],7.8 µg/mL
same,MIC,Candida albicans [32],7.8 µg/mL
same,MFC,Candida albicans [33],15.6 µg/mL
same,MFC,Nakaseomyces glabratus [34],15.6 µg/mL
same,MIC,Raoultella planticola [5],inactive
same,MFC,Candida parapsilosis [35],7.8 µg/mL
same,MIC,Pichia kudriavzevii [36],7.8 µg/mL
same,MIC,Staphylococcus aureus [8],inactive
same,MIC,Candida albicans [37],7.8 µg/mL
same,MIC,Candida albicans [38],7.8 µg/mL
same,MIC,[Candida] aaseri [39],7.8 µg/mL
same,MIC,Micrococcus luteus [11],inactive
same,MFC,Candida albicans [40],7.8 µg/mL
same,MIC,Candida albicans [41],7.8 µg/mL
same,MFC,[Candida] aaseri [42],7.8 µg/mL
same,MIC,Candida parapsilosis [43],7.8 µg/mL
same,MFC,Pichia sporocuriosa [44],7.8 µg/mL
same,MFC,Candida albicans [45],15.6 µg/mL
same,MIC,Candida albicans [18],7.8 µg/mL
COc1ccc(C[C@H](N)C(=O)N[C@H]2[C@@H](O)[C@H](n3cnc4c(N(C)C)ncnc43)O[C@@H]2CO)cc1 [PUROMYCIN],IC50,A549 [12],600 nM
same,IC50,[13],700 nM
